{"source": "patent US12129235B2", "about": "“TSPO binders” (The University Court of the University of Glasgow, priority 2018, dated 2024)", "key": {"TSPO [1]": {"molecular_target": "T1, TSPO (Rattus norvegicus, UniProt P16257)", "test": "^18F-LW223 PET blocking and displacement with PK11195 (1 mg/kg) in rats", "type": "in vivo", "set-up": "from tissue; host or cells: living Sprague-Dawley rats (brain, heart, lungs and other organs)", "conditions": "for reduction of radiotracer binding post-blocking / VT post-blocking: PK11195 1 mg/kg; for displacement from target sites at equilibrium time point: PK11195 1 mg/kg after 60 min; for VT post-blocking: mean±SEM, n=3", "experimental": "13 PET scans were performed with ^18F-LW223 (mean injected radioactivity of 19.55±2.1 MBq). Scans were acquired following i.v. bolus injection of ^18F-LW223 via tail vein or femoral vein shunt (invasive kinetic modelling experiments with β-probe automatic blood sampler) in rats. Test-retest scans were obtained in three rats following i.v. bolus of the radiotracer, with two weeks interval between test and retest imaging sessions. […] These scans were compared to baseline scans where no PK11195 was used. For displacement studies, rats received i.v. administration of ^18F-LW223 and scanned continuously for 120 min. […] A male and female mouse were initially used to derive the dosimetry estimates for ^18F-LW223 over a 4 h dynamic scan, followed by additional mice in a further study (in a study with a mean injected radioactivity of 10.83±5.6 MBq).\nAll PET data were acquired using a preclinical PET/CT small animal scanner (nanoPET/CT, Mediso, Hungary). A CT scan (semi-circular full trajectory, maximum field of view, 480 projections, 50 kVp, 300 ms and 1:4 binning) was acquired for attenuation correction. Immediately following radiotracer administration, a 120 minutes emission scan was obtained using 3-dimentional 1:5 mode and re-binned as follows: 18×10 s; 2×30 s; 1×60 s; 2×2 min; 10×5 min; 6×10 min. PET images were reconstructed using Mediso's iterative Tera-Tomo 3D reconstruction algorithm and the following settings: 4 iterations, 6 subsets, full detector model, low regularization, spike filter on, voxel size 0.4 mm and 400-600 keV energy window. PET data were corrected for randoms, scatter and attenuation.\nImage Processing and Data Analysis Reconstructed scans were imported into PMOD 3.8 software (PMOD Technologies, Switzerland). Volumes of interest (VOIs) were manually drawn around organs of interest. Time-activity curves (TACs) were generated and standardized uptake values (SUVs) calculated as concentration in the VOI divided by injected dose divided by animal weight. Kinetic modelling was performed using compartmental analysis (1-Tissue (1T) and 2-Tissue (2T) models) and graphical analysis (Logan plot and Ichise multivariate analysis) to estimate the volume of distribution (VT) in different tissues (Innis et al.; Logan; and Ichise et al.). Model fitting performance was evaluated using the Akaike information criterion (AIC) and the model selection criterion (MSC), where the preferred model had the lowest AIC and highest MSC. The selected identifiability criterion was the percentage standard error (% SE) of VT estimates. Kinetic modeling was also performed using graphical analysis to estimate the distribution volume ratio (DVR) in tissue regions and organs where the reference region VOI was the blood pool VOI in the left ventricle (Logan et al.)."}, "TSPO [2]": {"molecular_target": "T1, TSPO", "test": "^18F-LW223 PET/CT in rat model of myocardial infarction", "type": "in vivo, rats", "set-up": "from tissue; host or cells: living Sprague-Dawley rats (brain, heart, lungs and other organs)", "conditions": "heart, brain and lungs; 7 days after myocardial infarction", "excerpt": "Rats underwent permanent of ligation of the left anterior descending coronary artery to induce myocardial infarction and after 7 days were imaged using ^18F-LW223 PET/CT (see FIG. 11). Naive rats were used as a healthy control for comparison. […] This indicates a myocardial infarction mediated increase in expression of TSPO within these organs which may also be interpreted as increased systemic inflammation."}}, "data": [{"compound": "CC[C@@H](C)N(C)C(=O)c1nc2ccccc2c(-c2ccccc2)c1C[18F]", "note": "[^18F-LW223, (R)-(N-sec-Butyl)-3-[19-fluoro]-methyl-N-methyl-4-phenylquinoline-2-carboxamide]", "values": [{"measurement": "reduction on the SUV values post-blocking compared with baseline", "setting": "TSPO [1]; PK11195 1 mg/kg prior to tracer", "value": "64-81%"}, {"measurement": "reduction of radiotracer binding post-blocking", "setting": "TSPO [1]; brain", "value": 12, "unit": "%"}, {"measurement": "displacement from target sites at equilibrium time point", "setting": "TSPO [1]; brain", "value": 29, "unit": "%"}, {"measurement": "reduction of radiotracer binding post-blocking", "setting": "TSPO [1]; heart", "value": 35, "unit": "%"}, {"measurement": "displacement from target sites at equilibrium time point", "setting": "TSPO [1]; heart", "value": 52, "unit": "%"}, {"measurement": "VT post-blocking", "setting": "TSPO [1]; heart", "value": "6.19±0.38"}, {"measurement": "reduction of radiotracer binding post-blocking", "setting": "TSPO [1]; lungs", "value": 56, "unit": "%"}, {"measurement": "displacement from target sites at equilibrium time point", "setting": "TSPO [1]; lungs", "value": 40, "unit": "%"}, {"measurement": "VT post-blocking", "setting": "TSPO [1]; lungs", "value": "2.27±0.07"}, {"measurement": "SUV relative to the blood pool versus naive rats", "setting": "TSPO [2]", "value": "increase"}]}]}
